Measured values from patent US10738056B2 (Aduro BioTech, Inc., priority 2017, dated 2020).

Key:
[1] = biological target: Human cGAS amino acids 155-522 (Homo sapiens (Human), UniProt Q8N884); test: cGAS biochemical activity assay (ATP remaining, Kinase-Glo Max luminescence); settings: human cGAS 155-522, ATP remaining (Kinase-Glo Max); read-out: cGAS IC50
[2] = tested on: cGAS/STING pathway in THP1 cells; test: THP1 cell-based cGAS/STING pathway activity assay (IRF-3-linked luciferase reporter); settings: Homo sapiens, THP-1
Procedure, shortened: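 THP1 cells carrying an IRF-3-driven luciferase reporter were read across a range of compound concentrations, and IC50 values were derived from these concentration responses; the assay upper limit was 100 μM.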

Human cGAS amino acids 155-522, sequence (Q8N884 157-522): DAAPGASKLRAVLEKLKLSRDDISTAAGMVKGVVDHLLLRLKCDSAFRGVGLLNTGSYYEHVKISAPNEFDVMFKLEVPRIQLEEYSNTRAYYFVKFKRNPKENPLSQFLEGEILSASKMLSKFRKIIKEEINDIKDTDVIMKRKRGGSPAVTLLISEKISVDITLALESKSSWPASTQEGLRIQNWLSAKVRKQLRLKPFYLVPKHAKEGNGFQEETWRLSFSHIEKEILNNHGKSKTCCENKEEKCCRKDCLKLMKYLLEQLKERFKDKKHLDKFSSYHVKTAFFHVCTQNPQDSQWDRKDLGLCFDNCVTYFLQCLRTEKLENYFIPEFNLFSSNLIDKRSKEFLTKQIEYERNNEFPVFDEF

Row | IC50 [1] [µM] | IC50 [2] [µM] | SMILES
1 | < 20 | 20 to 100 | Cc1[nH]c2c(-c3ccccc3)c(C(F)(F)F)nn2c(=O)c1-c1nnc([C@H]2CCCOC2)o1 [Compound D1025, (S)-5-methyl-3-phenyl-6-(5-(tetrahydro-2H-pyran-3-yl)-1,3,4-oxadiazol-2-yl)-2-(trifluoromethyl)pyrazolo[1,5-a]pyrimidin-7(4H)-one]
2 | < 20 | > 100 | Cc1[nH]c2c(-c3ccccc3)c(C(F)(F)F)nn2c(=O)c1-c1nnc([C@@H]2CCCOC2)o1 [Compound D1026, (R)-5-methyl-3-phenyl-6-(5-(tetrahydro-2H-pyran-3-yl)-1,3,4-oxadiazol-2-yl)-2-(trifluoromethyl)pyrazolo[1,5-a]pyrimidin-7(4H)-one]
3 | < 20 | > 100 | Cc1[nH]c2c(-c3ccccc3)c(C(F)(F)F)nn2c(=O)c1-c1nnc(C2CCCN(S(C)(=O)=O)C2)o1 (stereo not shown) [Compound D1040, 5-methyl-6-(5-(1-(methylsulfonyl)piperidin-3-yl)-1,3,4-oxadiazol-2-yl)-3-phenyl-2-(trifluoromethyl)pyrazolo[1,5-a]pyrimidin-7(4H)-one]
4 | 20 to 250 | > 100 | CC(=O)N1CCCC(c2nnc(-c3c(C)[nH]c4c(-c5ccccc5)c(C(F)(F)F)nn4c3=O)o2)C1 (stereo not shown) [Compound D1041, 6-(5-(1-acetylpiperidin-3-yl)-1,3,4-oxadiazol-2-yl)-5-methyl-3-phenyl-2-(trifluoromethyl)pyrazolo[1,5-a]pyrimidin-7(4H)-one]
5 | 20 to 250 | > 100 | CC(=O)N1CCOCC1c1nnc(-c2c(C)[nH]c3c(-c4ccccc4)c(C(F)(F)F)nn3c2=O)o1 (stereo not shown) [Compound D1050, 6-(5-(4-acetylmorpholin-3-yl)-1,3,4-oxadiazol-2-yl)-5-methyl-3-phenyl-2-(trifluoromethyl)pyrazolo[1,5-a]pyrimidin-7(4H)-one]
6 | < 20 | > 100 | Cc1[nH]c2c(-c3ccccc3)c(C(F)(F)F)nn2c(=O)c1-c1nnc(C2CCCCN2S(C)(=O)=O)o1 (stereo not shown) [Compound D1056, 5-methyl-6-(5-(1-(methylsulfonyl)piperidin-2-yl)-1,3,4-oxadiazol-2-yl)-3-phenyl-2-(trifluoromethyl)pyrazolo[1,5-a]pyrimidin-7(4H)-one]
7 | < 20 | 20 to 100 | CC(=O)N1CCCCC1c1nnc(-c2c(C)[nH]c3c(-c4ccccc4)c(C(F)(F)F)nn3c2=O)o1 (stereo not shown) [Compound D1057, 6-(5-(1-acetylpiperidin-2-yl)-1,3,4-oxadiazol-2-yl)-5-methyl-3-phenyl-2-(trifluoromethyl)pyrazolo[1,5-a]pyrimidin-7(4H)-one]

The remaining lines, values behind:

Row | SMILES | IC50 [1] [µM] | IC50 [2] [µM]
8 | Cc1[nH]c2c(-c3ccccc3)c(C(F)(F)F)nn2c(=O)c1-c1nnc(C2(C)CCCC2)o1 [Compound D1023, 5-methyl-6-(5-(1-methylcyclopentyl)-1,3,4-oxadiazol-2-yl)-3-phenyl-2-(trifluoromethyl)pyrazolo[1,5-a]pyrimidin-7(4H)-one] | < 20 | > 100
9 | Cc1[nH]c2c(-c3ccccc3)c(C(F)(F)F)nn2c(=O)c1-c1nnc(C2CCCCO2)o1 (stereo not shown) [Compound D1024, 5-methyl-3-phenyl-6-(5-(tetrahydro-2H-pyran-2-yl)-1,3,4-oxadiazol-2-yl)-2-(trifluoromethyl)pyrazolo[1,5-a]pyrimidin-7(4H)-one] | < 20 | > 100
10 | COC1CCCN(c2nnc(-c3c(C)[nH]c4c(-c5ccccc5)c(C(F)(F)F)nn4c3=O)o2)C1 (stereo not shown) [Compound D1027, 6-(5-(3-methoxypiperidin-1-yl)-1,3,4-oxadiazol-2-yl)-5-methyl-3-phenyl-2-(trifluoromethyl)pyrazolo[1,5-a]pyrimidin-7(4H)-one] | < 20 | > 100
11 | CO[C@](c1ccccc1)(c1nnc(-c2c(C)[nH]c3c(-c4ccccc4)c(C(F)(F)F)nn3c2=O)o1)C(F)(F)F [Compound D1029, (R)-5-methyl-3-phenyl-6-(5-(2,2,2-trifluoro-1-methoxy-1-phenylethyl)-1,3,4-oxadiazol-2-yl)-2-(trifluoromethyl)pyrazolo[1,5-a]pyrimidin-7(4H)-one] | < 20 | > 100
12 | Cc1nn2c(=O)c(-c3nnc(C4CCCOC4)o3)c(C)[nH]c2c1-c1ccccc1 (stereo not shown) [Compound D1030, 2,5-dimethyl-3-phenyl-6-(5-(tetrahydro-2H-pyran-3-yl)-1,3,4-oxadiazol-2-yl)pyrazolo[1,5-a]pyrimidin-7(4H)-one] | < 20 | > 100
13 | Cc1[nH]c2c(-c3ccccc3)c(C(F)(F)F)nn2c(=O)c1-c1nnc(C2(C(F)(F)F)CC2)o1 [Compound D1038, 5-methyl-3-phenyl-2-(trifluoromethyl)-6-(5-(1-(trifluoromethyl)cyclopropyl)-1,3,4-oxadiazol-2-yl)pyrazolo[1,5-a]pyrimidin-7(4H)-one] | < 20 | < 20
14 | Cc1[nH]c2c(-c3ccccc3)c(C(F)(F)F)nn2c(=O)c1-c1nnc(C2COCCN2)o1 (stereo not shown) [Compound D1042, 5-methyl-6-(5-(morpholin-3-yl)-1,3,4-oxadiazol-2-yl)-3-phenyl-2-(trifluoromethyl)pyrazolo[1,5-a]pyrimidin-7(4H)-one] | 20 to 250 | > 100
15 | Cc1[nH]c2c(-c3ccccc3)c(C(F)(F)F)nn2c(=O)c1-c1nnc(C2COCCN2S(C)(=O)=O)o1 (stereo not shown) [Compound D1047, 5-methyl-6-(5-(4-(methylsulfonyl)morpholin-3-yl)-1,3,4-oxadiazol-2-yl)-3-phenyl-2-(trifluoromethyl)pyrazolo[1,5-a]pyrimidin-7(4H)-one] | < 20 | > 100
16 | COC(C)(C)c1nnc(-c2c(C)[nH]c3c(-c4ccccc4)c(C(F)(F)F)nn3c2=O)o1 [Compound D1048, 6-(5-(2-methoxypropan-2-yl)-1,3,4-oxadiazol-2-yl)-5-methyl-3-phenyl-2-(trifluoromethyl)pyrazolo[1,5-a]pyrimidin-7(4H)-one] | 20 to 250 | > 100
17 | Cc1[nH]c2c(-c3ccccc3)c(C(F)(F)F)nn2c(=O)c1-c1nnc(C2(C)CCCOC2)o1 (stereo not shown) [Compound D1051, 5-methyl-6-(5-(3-methyltetrahydro-2H-pyran-3-yl)-1,3,4-oxadiazol-2-yl)-3-phenyl-2-(trifluoromethyl)pyrazolo[1,5-a]pyrimidin-7(4H)-one] | 20 to 250 | > 100
18 | COC1(c2nnc(-c3c(C)[nH]c4c(-c5ccccc5)c(C(F)(F)F)nn4c3=O)o2)CCCC1 [Compound D1055, 6-(5-(1-methoxycyclopentyl)-1,3,4-oxadiazol-2-yl)-5-methyl-3-phenyl-2-(trifluoromethyl)pyrazolo[1,5-a]pyrimidin-7(4H)-one] | < 20 | 20 to 100
19 | Cc1[nH]c2c(-c3ccccc3)c(C(F)(F)F)nn2c(=O)c1-c1nnc(C2(N)CCCC2)o1 [Compound D1062, 6-(5-(1-aminocyclopentyl)-1,3,4-oxadiazol-2-yl)-5-methyl-3-phenyl-2-(trifluoromethyl)pyrazolo[1,5-a]pyrimidin-7(4H)-one] | < 20 | > 100
20 | Cc1[nH]c2c(-c3ccccc3)c(C(F)(F)F)nn2c(=O)c1-c1nnc(N2CCCCC2CN)o1 (stereo not shown) [Compound D1070, 6-(5-(2-(aminomethyl)piperidin-1-yl)-1,3,4-oxadiazol-2-yl)-5-methyl-3-phenyl-2-(trifluoromethyl)pyrazolo[1,5-a]pyrimidin-7(4H)-one] | < 20 | > 100
